Measurements as given in patent US5932742A, “Arylsulfonylimidazolone derivatives as an antitumor agent” (priority 1996, dated 1999).
Converted amounts (≈) assume the structure as drawn. “Also recorded” adds a separate entry of the source. Where a name gives a salt, the structure may show the parent alone. Read-outs that look alike come from different tables or passages of the source.

Key:
[1] = tested on: A549 (ATCC CCL 185): human lung carcinoma; experiment: In vitro antitumor activity, MTT assay, A549; format: cell-based; details: for IC50: Homo sapiens, A549, 48 h
Outline: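 A549 cells in RPMI 1640 with 10% FBS, 10,000 cells/well, pre-cultured 24 hrs, then exposed 48 hrs at 37° C to compound at 20 to 0.00128 μg/ml final (5-fold steps, DMSO below 0.5%). MTT added for 4 hrs, formazan dissolved in DMSO and read at 540nm; IC50 by linear regression of % of control.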

[2] = tested on: Colo205 (ATCC CCL 222): human colon adenocarcinoma; experiment: In vitro antitumor activity, MTT assay, Colo205; format: cell-based; details: for IC50: Homo sapiens
Outline: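 Colo205 cells in RPMI 1640/10% FBS were exposed 48 h at 37 °C to 5-fold serial dilutions, final 20 to 0.00128 µg/ml, DMSO below 0.5%. MTT added for 4 h, formazan dissolved in DMSO, A540 read versus medium control; IC50 by linear regression.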

[3] = tested on: SK-OV-3 (ATCC HTB 77): human ovarian adenocarcinoma; experiment: In vitro antitumor activity, MTT assay, SK-OV-3; format: cell-based; details: for IC50: Homo sapiens
Outline: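 Cells seeded at 10,000 per well, grown 24 h, then exposed 48 h at 37 °C to compound at final 20 to 0.00128 μg/ml (5-fold dilutions, DMSO below 0.5%). MTT added for 4 h, formazan dissolved in DMSO, absorbance read at 540 nm; IC50 estimated by linear regression.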

[4] = tested on: K562 (ATCC CCL 243): human chronic myelogenous leukemia; experiment: In vitro antitumor activity, MTT assay, K562; format: cell-based; details: for IC50: Homo sapiens, K562, 48 h
Outline: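 K562 cells (10,000/well) pre-cultured 24 hrs, then exposed 48 hrs at 37° C. to serially 5-fold diluted compound, final 20 μg/ml to 0.00128 μg/ml, DMSO below 0.5%. MTT added 4 hrs; formazan dissolved in DMSO, A540 read. Cytotoxicity as test/control absorbance; IC50 by linear regression.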

[5] = tested on: Colon 26 murine colon cancer cell; experiment: In vivo antitumor activity against Colon 26 murine colon cancer cell; set-up: species or system Balb/C mouse; details: 65 mg/kg p.o., once per 2 days for 10 days; tumor weight
Description: In vivo antitumor activity against Colon 26 murine colon cancer cell
Colon 26 murine cancer cells were injected into Balb/C mouse intradermally and grown in mouse abdominal skin to a solid tumor. The Colon 26 tumors were periodically excised from the mouse, digested with an enzyme mixture containing collagenase and DNase, and then intradermally reinjected into mouse for subculture.
The cells were washed, resuspended in saline (5×10^6 cells/ml) and inoculated (5×10^5 cells/0.1 ml) intradermally to abdominal part of Balb/C mouse of which hair was removed in advance. Each test compound was dissolved in a solvent mixture of 60% propylene glycol(PG), 40% cremophor RH60(CP), and distilled water(DW) in the volume ratio of 30:20:50. When the size of tumor reached at appropriate level, the test compound was administered orally into the mouse which was implanted with colon 26 tumor cells in the frequency of once per 2 days for 10 days. The vehicle was also administered into the mouse of control group. The major and minor axis of tumor in each group were regularly measured by vernier calipers to estimate the increase of the tumor volume. Tumor volume was calculated on the basis of the following formula
Tumor volume(mm^3)=(1/2)×[length of major axis(mm)]×[length
When the tumor volume of the control group reached at about 1500 mm^3, the test animals were sacrificed by cervical dislocation and tumor was carefully excised and weighed. The inhibition rate of tumor growth (%) of each test compound was calculated as follows: […]
group.div.Tumor weight of control group)]

[6] = tested on: solid tumors and human tumor xenogafts; details: J. Med. Chem., 1990, 33, 2393; cited from earlier work
[7] = literature; cited from earlier work
[8] = tested on: P388 murine leukemia cells; experiment: In vivo antitumor activity against P388 murine leukemia cell; set-up: species or system BDF1 mouse; details: once per 2 days for 10 days, median survival time
Description: In vivo antitumor activity against P388 murine leukemia cell
P388 murine leukemia cells were injected into BDF1 mouse intraperitoneally and grown in the peritoneal cavity. The P388 cells were periodically exudated and reinjected intraperitoneally into mouse for subculture.
The cells were exudated, washed, resuspended in saline (2×10^7 cells/ml), and then injected intraperitoneally again into BDF1 mouse (2×10^6 cells/0.1 ml).
Test compound dissolved in appropriate vehicle was administered intraperitonealy or orally into the mouse which was implanted with P388 murine leukemia tumor cells in the frequency of once per 2 days for 10 days. The vehicle was administered into the mouse of control group. Then, the number of live animals were daily checked to estimate the median survival time (MST).
T/C ratio(%) of each test compound was calculated according to the following formula, and the test results are shown in Table 6.
T/C(%)=(MST of test group.div.MST of control group)×100

[9] = Acute toxicity test (LD50); format: in vivo; details: in vivo, po; gastric lavage, male Wistar rat; probit method; 95% confidence interval in parenthesis on the next line
Description: (§1) Acute toxicity test (LD50)
(§2) Male Wistar Rat (Charles River Japan, ca, 6 weeks old) was used as test animal and sodium-carboxymethylcellulose (Na-CMC, Sigma Chemical, U.S.A.) was used as a vehicle control. Compounds 57 and 65 were suspended in 0.5% Na-CMC, respectively, before dosing. Test compounds were administered by gastric lavage with the dosage of 400, 550, 700, 850 and ^1000 mg/kg. Control group was treated only with 0.5% Na-CMC. Each group was consisted of 5 rats.

Male Wistar Rat = experiment: Acute toxicity test (LD50); format: in vivo; details: gastric lavage
Description: as §1, §2

[10] = COLO 205, Table 5, 48 hrs, read-out: IC50 (Colo205)

Cl.NC(Cc1ccccc1)C(=O)Nc1ccc(C(=O)N2CCc3cc(S(=O)(=O)N4C[C@H](c5ccccc5)NC4=O)ccc32)cc1 (stereo partly drawn) [Example 68, (S)-(-)-4-phenyl-1-[N-{4-(2-amino-3-phenyl-propanoyl)aminobenzoyl}indoline-5-sulfonyl]-4,5-dihydro-2-imidazolone.HCl]
IC50 (A549) ([1]; Table 5, 48 hrs): 0.083 µg/mL | IC50 (Colo205) ([2]; Table 5, 48 hrs): 0.598 µg/mL | IC50 (SK-OV-3) ([3]; Table 5, 48 hrs): 0.137 µg/mL | IC50 (K562) ([4]; Table 5, 48 hrs): 0.561 µg/mL | Inhibition rate of tumor growth (%) [5]: 45.3%

O=C(Nc1ccc(Cl)cc1)NS(=O)(=O)c1ccc2c(c1)CCC2 [Sulofenur, reference compound]
IC50 ([1]; Table 1): 12.8 µg/mL (≈ 36.4 µM) | IC50 ([1]; Table 3): 12.8 µg/mL (≈ 36.4 µM) | IC50 ([1]; Table 4): 12.8 µg/mL (≈ 36.4 µM) | IC50 ([1]; Table 5): 12.8 µg/mL (≈ 36.4 µM) | IC50 ([2]; COLO 205, Table 3, 48 hrs, read-out: IC50 (Col205)): 48.9 µg/mL (≈ 139 µM) | IC50 [2, 10]: 48.9 µg/mL (≈ 139 µM) | IC50 ([3]; SK-OV-3, Table 5, 48 hrs): 78.2 µg/mL (≈ 223 µM) | IC50 ([4]; Table 3, read-out: IC50 (K562)): 17.6 µg/mL (≈ 50.1 µM) | IC50 ([4]; Table 4, read-out: IC50 (K562)): 17.6 µg/mL (≈ 50.1 µM) | IC50 ([4]; Table 5, read-out: IC50 (K562)): 17.6 µg/mL (≈ 50.1 µM) | antitumor activity [6]: exhibits potent antitumor activity upon solid tumors; also recorded: exceptionally broad spectrum of activity upon solid tumors and human tumor xenogafts | side effects [7]: does not produce serious side effects including myelosuppression, nausea, vomiting, alopecia, mucositis, and hepatotoxicity; also recorded: only shows minor side effects such as anemia or methemoglobinemia

Nc1ccc(C(=O)N2CCc3cc(S(=O)(=O)N4C[C@H](c5ccccc5)NC4=O)ccc32)cc1 [Example 65, (S)-(+)-4-phenyl-1-[N-(4-aminobenzoyl)indoline-5-sulfonyl]-4,5-dihydro-2-imidazolone.HCl]
IC50 ([1]; Table 5): 0.105 µg/mL | IC50 [2, 10]: 0.268 µg/mL | IC50 ([3]; SK-OV-3, Table 5, 48 hrs): 0.062 µg/mL | IC50 ([4]; Table 5, read-out: IC50 (K562)): 0.829 µg/mL | T/C rate (%) ([8]; 65 mg/kg p.o.): 138.5% | Inhibition rate of tumor growth (%) [5]: 69.2%

Nc1ccc(C(=O)N2CCc3cc(S(=O)(=O)N4CC(c5ccccc5)NC4=O)ccc32)cc1 (stereo not shown) [Example 57, 4-phenyl-1-[N-(4-aminobenzoyl)indoline-5-sulfonyl]-4,5-dihydro-2-imidazolone.HCl]
IC50 ([1]; Table 4): 0.09 µg/mL | IC50 ([3]; SK-OV-3, Table 4, 48 hrs): 0.572 µg/mL | IC50 ([4]; Table 4, read-out: IC50 (K562)): 0.203 µg/mL | T/C rate (%) ([8]; 50 mg/kg p.o.): 133.3% | T/C rate (%) ([8]; 65 mg/kg p.o.): 146.0% | T/C rate (%) ([8]; 100 mg/kg i.p.): 166.7% | T/C rate (%) ([8]; 100 mg/kg p.o.): 175.0% | Inhibition rate of tumor growth (%) [5]: 67.4% | LD50 [9]: 644 mg/kg | Acute toxicity, animals per group (dead/total) (Male Wistar Rat; 400 mg/kg): 0/5 | Acute toxicity, animals per group (dead/total) (Male Wistar Rat; 550 mg/kg): 1/5 | Acute toxicity, animals per group (dead/total) (Male Wistar Rat; 700 mg/kg): 3/5 | Acute toxicity, animals per group (dead/total) (Male Wistar Rat; 850 mg/kg): 5/5 | Acute toxicity, animals per group (dead/total) (Male Wistar Rat; 1000 mg/kg): 5/5
